From patent US20220184073A1, “USE OF A H3R INVERSE AGONIST FOR THE TREATMENT OF SHIFT WORK DISORDER” (Novartis AG, priority 2017, published 2022)
Entries after “also recorded” stand apart in the source; their conditions may differ.

Tests used:
[1] = SWD patients; N. Engl. J. Med., 2005, 353, 476-486; cited from earlier work
histamine in CSF = test: Histamine (HA) in CSF after single oral dose in healthy volunteers (LC-MS); assay type: in vivo, human; conditions: for model adjusted geometric mean ratio to baseline of histamine in CSF: 100 mg single oral dose (free form); for Comparison of treatment vs placebo, Estimate (geometric ratio), histamine in CSF: 100 mg single oral dose vs placebo
Protocol: (§1) A randomized, double-blind, placebo-controlled, parallel group, exploratory study of single oral doses of Compound (I) (free form) was conducted in healthy volunteers (HVs) to investigate the pharmacodynamic effect of Compound (I) on the release of neurotransmitters in the brain. A total of 16 subjects were enrolled into the study, which was part of a first-in-human (FIH) study.
(§2) Subjects were randomized in a 1:1 ratio to receive either a single dose of Compound (I) or placebo.
(§3) On study Day 1 in the afternoon (approximately at 16:00), the HVs underwent lumbar puncture and a spinal catheter was placed for repeated cerebrospinal fluid (CSF) sampling. The spinal catheter was placed under strict surgical aseptic conditions, as per best practice standards, by a board certified anesthesiologist. Two CSF samples were collected before administration of the study drug (Compound (I) or placebo). Study drug was administered in the evening (approximately at 18:00). Thereafter, 10 more CSF samples were collected during 16 hrs following drug administration. The exact timing of sampling (0.5, 1, 1.5, 2, 3, 4, 6, 8, 12 and 16 hr post dose). During the same period, blood samples were also collected for pharmacokinetic (PK) analysis. The subjects remained at bed rest during the CSF sampling procedure and for about 24 hr afterwards. The following safety precautions were taken: (1) proper hydration of the subjects was ensured; (2) the catheter insertion site was assessed on a regular basis for early signs of local infection or CSF leakage; (3) prophylactic interventions/treatments to reduce the risk of venous thrombosis was considered by the Investigator.
(§4) The dose of Compound (I) (free form) administered to the subjects was 100 mg. Safety, tolerability and PK assessments were made up to 72 hr post dose. Subjects were allowed to leave the study center on Study Day 4 at the discretion of the Investigator, if there were no prohibitive safety findings. The subjects were asked to return to the study site for the study completion evaluation. Safety assessments included physical examinations, electrocardiograms (ECGs), vital signs, standard clinical laboratory evaluations (hematology, blood chemistry, and urinalysis), adverse events (AEs) and serious adverse events (SAEs) monitoring.
(§5) Biomarkers related to pharmacodynamic (PD) effect of Compound (I) (e.g. histamine [HA], tele-methylhistamine [tMeHA]) were measured in the CSF using LC-MS method.
LC-MS conditions for histamine (%=percent by volume): Acquity Binary Solvent Manager/Applied Biosystems API 5000; Mobile Phase A: acetonitrile, B: 10 mM ammonium formate pH3; Gradient: 10%A for 0.25 min, increase to 15%A within 0.25 min, increase to 25%A within 4 min, increase to 90%A within 0.10 min, 90%A for 0.9 min, back to 10%A within 0.10 min, 10%A for 2.40 min; Run time: 8 min; Flow rate: 0.35 mL/min; Analytical column: Acquity BEH C18, 150×2.1 mm, 1.7 μm; Temperature: 30° C. The desired compound histamine LC-MS: Rt=3.85 min, m/z 246 (M+H)^+
(§6) The effect of Compound (I) on CSF biomarkers was assessed using mixed models for repeated measures (MMRM). These parameters were log transformed and analyzed using a model including treatment and timepoint, the treatment*timepoint interaction term, and log transformed baseline as fixed effects. An unstructured residual covariance matrix within subjects was considered as desirable, but an alternative covariance structure (autoregressive) was used due to a lack of fit. The mean difference versus placebo (and its 90% CI) was calculated at each dose level. These were back-transformed to give a geometric ratio (and its 90% CI) between each dose and placebo.
Subjects: The study population comprised of male and female (of non-child bearing potential) healthy volunteers (HVs) 18-55 years of age. […] BMI=Body weight (kg)/[Height (m)]2. Subjects were able to communicate well with the Investigator, to understand and comply with the requirements of the study. […]

[2] = tested on: tele-methylhistamine in CSF; test: tele-methylhistamine (tMeHA) in CSF after single oral dose in healthy volunteers (LC-MS); assay type: in vivo, human; conditions: for model adjusted geometric mean ratio to baseline of tele-methylhistamine in CSF: 100 mg single oral dose (free form); for Comparison of treatment vs placebo, Estimate (geometric ratio), tele-methylhistamine in CSF: 100 mg single oral dose vs placebo
Protocol: as §1, §2, §3, §4, §5
LC-MS conditions for tele-methyl-histamine (%=percent by volume): Acquity Binary Solvent Manager/Applied Biosystems API 5000; Mobile Phase A: acetonitrile, B: 10 mM ammonium formate pH9; Gradient: 15%A for 0.25 min, increase to 25%A within 4.75 min, increase to 90%A within 0.10 min, 90%A for 0.50 min, back to 15%A within 0.10 min, 15%A for 0.60 min; Run time: 6.3 min; Flow rate: 0.65 mL/min; Analytical column: Acquity BEH C18, 150×2.1 mm, 1.7 μm; Temperature: 70° C. The desired compound tele-methyl-histamine LC-MS: Rt=4.66 min, m/z 260 (M+H)^+
Compound (I) can induce histamine release in a subject and thereby promote wakefulness. The tMeHA is the direct breakdown product of HA and can thus be used as a marker for HA release. In animals, the half-life of HA is about 20 minutes. Therefore HA is not an ideal mechanistic PD marker for Compound (I). due to its short half-life. […] Due to its slower breakdown, tMeHA was expected to be a more useful PD marker of Compound (I) activity than HA itself.
as §6, with “The mean difference versus placebo (and its 90% CI) was calculated at each dose level. These were back-transformed to give a geometric ratio (and its 90% CI) between each dose and placebo.” left out

[3] = healthy volunteers, 0.5 hr post-dose
[4] = healthy volunteers, 1.0 hr post-dose
[5] = healthy volunteers, 1.5 hr post-dose
[6] = healthy volunteers, 2.0 hr post-dose
[7] = healthy volunteers, 3.0 hr post-dose
[8] = healthy volunteers, 4.0 hr post-dose
[9] = healthy volunteers, 6.0 hr post-dose
[10] = healthy volunteers, 8.0 hr post-dose
[11] = healthy volunteers, 12.0 hr post-dose
[12] = healthy volunteers, 16.0 hr post-dose

NC(=O)C[S+]([O-])C(c1ccccc1)c1ccccc1 (stereo not drawn) [modafinil, 2-(benzhydrylsulfinyl)acetamide]
mean sleep latency (MSLT) [1]: modest but statistically significant improvement

Cn1nc(N2CCC(OC(=O)N3CCN(C4CCC4)CC3)CC2)ccc1=O [Compound (I), 1-(1-methyl-6-oxo-1,6-dihydropyridazin-3-yl)piperidin-4-yl 4-cyclobutylpiperazine-1-carboxylate]
model adjusted geometric mean ratio to baseline of histamine in CSF (histamine in CSF; 0.5 hr post-dose): 1.27 | model adjusted geometric mean ratio to baseline of histamine in CSF (histamine in CSF; 1.0 hr post-dose): 1.09 | model adjusted geometric mean ratio to baseline of histamine in CSF (histamine in CSF; 1.5 hr post-dose): 0.95 | model adjusted geometric mean ratio to baseline of histamine in CSF (histamine in CSF; 2.0 hr post-dose): 1.02 | model adjusted geometric mean ratio to baseline of histamine in CSF (histamine in CSF; 3.0 hr post-dose): 1.01 | model adjusted geometric mean ratio to baseline of histamine in CSF (histamine in CSF; 4.0 hr post-dose): 0.73 | model adjusted geometric mean ratio to baseline of histamine in CSF (histamine in CSF; 6.0 hr post-dose): 0.63 | model adjusted geometric mean ratio to baseline of histamine in CSF (histamine in CSF; 8.0 hr post-dose): 0.83 | model adjusted geometric mean ratio to baseline of histamine in CSF (histamine in CSF; 12.0 hr post-dose): 0.84 | model adjusted geometric mean ratio to baseline of histamine in CSF (histamine in CSF; 16.0 hr post-dose): 0.92 | Comparison of treatment vs placebo, Estimate (geometric ratio), histamine in CSF (histamine in CSF; 0.5 hr post-dose): 1.16 | Comparison of treatment vs placebo, Estimate (geometric ratio), histamine in CSF (histamine in CSF; 1.0 hr post-dose): 0.96 | Comparison of treatment vs placebo, Estimate (geometric ratio), histamine in CSF (histamine in CSF; 1.5 hr post-dose): 0.97 | Comparison of treatment vs placebo, Estimate (geometric ratio), histamine in CSF (histamine in CSF; 2.0 hr post-dose): 0.99 | Comparison of treatment vs placebo, Estimate (geometric ratio), histamine in CSF (histamine in CSF; 3.0 hr post-dose): 1.15 | Comparison of treatment vs placebo, Estimate (geometric ratio), histamine in CSF (histamine in CSF; 4.0 hr post-dose): 0.79 | Comparison of treatment vs placebo, Estimate (geometric ratio), histamine in CSF (histamine in CSF; 6.0 hr post-dose): 0.64 | Comparison of treatment vs placebo, Estimate (geometric ratio), histamine in CSF (histamine in CSF; 8.0 hr post-dose): 1.14 | Comparison of treatment vs placebo, Estimate (geometric ratio), histamine in CSF (histamine in CSF; 12.0 hr post-dose): 1.14 | Comparison of treatment vs placebo, Estimate (geometric ratio), histamine in CSF (histamine in CSF; 16.0 hr post-dose): 0.82 | mean CSF HA levels, treatment vs placebo (in words) (histamine in CSF; free form, 100 mg, single dose, 16 hrs observation): No clear trend of a difference; also recorded: No treatment response was detected | between group difference in CSF tMeHA (statistical significance) ([2]; at 1.5 hrs post dose and at all subsequent sampling points): statistically significant | time for which mean CSF tMeHA level was increased compared to baseline ([2]; healthy volunteers, 100 mg single oral dose): about 10 hrs | model adjusted geometric mean ratio to baseline of tele-methylhistamine in CSF [2, 3]: 1.01 | model adjusted geometric mean ratio to baseline of tele-methylhistamine in CSF [2, 4]: 1.17 | model adjusted geometric mean ratio to baseline of tele-methylhistamine in CSF [2, 5]: 1.30 | model adjusted geometric mean ratio to baseline of tele-methylhistamine in CSF [2, 6]: 1.73 | model adjusted geometric mean ratio to baseline of tele-methylhistamine in CSF [2, 7]: 1.64 | model adjusted geometric mean ratio to baseline of tele-methylhistamine in CSF [2, 8]: 1.21 | model adjusted geometric mean ratio to baseline of tele-methylhistamine in CSF [2, 9]: 1.59 | model adjusted geometric mean ratio to baseline of tele-methylhistamine in CSF [2, 10]: 1.20 | model adjusted geometric mean ratio to baseline of tele-methylhistamine in CSF [2, 11]: 0.79 | model adjusted geometric mean ratio to baseline of tele-methylhistamine in CSF [2, 12]: 1.04 | Comparison of treatment vs placebo, Estimate (geometric ratio), tele-methylhistamine in CSF [2, 3]: 1.02 | Comparison of treatment vs placebo, Estimate (geometric ratio), tele-methylhistamine in CSF [2, 4]: 1.10 | Comparison of treatment vs placebo, Estimate (geometric ratio), tele-methylhistamine in CSF [2, 5]: 1.39 | Comparison of treatment vs placebo, Estimate (geometric ratio), tele-methylhistamine in CSF [2, 6]: 1.77 | Comparison of treatment vs placebo, Estimate (geometric ratio), tele-methylhistamine in CSF [2, 7]: 1.88 | Comparison of treatment vs placebo, Estimate (geometric ratio), tele-methylhistamine in CSF [2, 8]: 1.63 | Comparison of treatment vs placebo, Estimate (geometric ratio), tele-methylhistamine in CSF [2, 9]: 1.85 | Comparison of treatment vs placebo, Estimate (geometric ratio), tele-methylhistamine in CSF [2, 10]: 2.14 | Comparison of treatment vs placebo, Estimate (geometric ratio), tele-methylhistamine in CSF [2, 11]: 2.45 | Comparison of treatment vs placebo, Estimate (geometric ratio), tele-methylhistamine in CSF [2, 12]: 1.57 | mean tMeHA level in CSF / ratio to baseline, treatment vs placebo (in words) ([2]; healthy volunteers, 100 mg single oral dose, entire observation period): higher; also recorded: robust increase
